# Experimental data published in patent US20020032918A1, “Alteration of growth and adaptation under hypoxic conditions” (priority 2000, published 2002).
# Assays:
# [1] = test system: endogenous ABA and GA1 levels in internodes; conditions: cited from earlier work
# [2] = test system: SH2A gene expression; assay: Northern blot analysis of SH2A transcript abundance in isolated deepwater rice stem segments treated with hormone or inhibitor solutions; assay type: cell-based, Oryza sativa L.
# Procedure: Seeds of deepwater rice (Oryza sativa L., Pin Gaew 56) were obtained from the International Rice Research Institute (Los Baños, The Philippines). Plants were grown for 12 to 14 weeks as described (Sauter, 1997). All experiments were carried out under continuous light (200 μE/m^−2 s^−1) at 25° C. in a growth chamber. For submergence treatment, whole plants were placed in a 600 liter plastic barrel filled with tap water as described (Lorbiecke and Sauter, 1999). Control plants were kept in the same growth chamber. Analysis of hormone and inhibitor effects was performed using excised stem segments containing the upper highest growth responsive internode. (Raskin and Kende, 1984). Stem segments were incubated in 150 ml beakers with 25 ml aqueous solutions containing the indicated concentrations of gibberellin A3 (GA3) or the hormone precursor ethephon (2-chlorethanephosphoric acid, E) or water alone as a control. Control segments were incubated for 0.5 or 3 h in water. For ethephon treatment stem segments were preincubated for 0.5 h in water before adding ethephon for 2.5 h.
# To guarantee high humidity, the beakers were placed in plastic cylinders. Ethylene action was inhibited using 2,5-norbornadiene (bicyclo[2.2.1]hepta-2,5-diene, NBD) at a concentration of 50 μl/l in the gas phase as described (Lorbiecke and Sauter, 1999).
# To inhibit protein synthesis, stem sections were incubated with aqueous solutions of cycloheximide for 3 hours at the concentrations indicated.
# To determine submergence-dependent gene expression, mRNA abundance of SH2A and SH2B was analysed by RNA gel blot hybridization. RNA was isolated from different zones of the youngest internode and from adventitious roots of the third node from airgrown or partially submerged deepwater rice plants. Thus, tissue sections of the highest internode, 0-5 mm above the second node and containing the intercalary meristem; 5-15 mm above the second node containing the elongation zone; and 15-30 mm above the second node and containing the differentiation zone were used (Lorbiecke and Sauter, 1997). Adventitious roots of the third node were isolated as described (Lorbiecke and Sauter, 1999). The tissues were immediately frozen in liquid nitrogen and stored at −70° C. until RNA extraction. Total RNA was isolated with the TRIzol reagent (Gibco BRL) and precipitated with 4 M LiCl as described (Puissant and Houdebine, 1990, Lorbiecke and Sauter, 1999). RNA separation and Northern blot hybridization were carried out as described previously (Lorbiecke and Sauter, 1998). For RNA blot analysis, 20 μg of total RNA was separated by electrophoresis on a 1% (w/v) agarose gel containing 6% formaldehyde. The RNA was blotted to a nylon membrane (Hybond N+; Amersham, Braunschweig, Germany) according to Lorbiecke and Sauter (1998). For hybridization, gene-specific cDNA-fragments covering the 3′-regions of SH2A (nt 496-867) and SH2B (nt 513-980) were random prime labelled with 32P using the ‘Rediprime Labelling Kit’ (Amersham, Braunschweig, Germany). Hybridization was carried out overnight at 68° C. in 1% SDS, 1 M NaCl, 10% (w/v) dextran sulfate and heat-denatured salmon sperm DNA. The blots were washed once in 1× SSC (0.15 M NaCl, 15 mM Na-citrate, pH 7.0) at 68° C. and once in 1× SSC, 1% (w:v) SDS at 68° C. for 10 min each (Sauter, 1997).
# To analyse the hormone-dependent expression of the SH2A gene, isolated stem segments containing the youngest internode were treated with different hormone or inhibitor solutions for 2.5 hours. Total RNAs were isolated from the regions containing the intercalary meristem and the elongation zone and were analysed for SH2A transcript abundance (FIG. 8a).
# [3] = test system: seedlings of a submergence intolerant cultivar; conditions: elongation response inhibited by spraying; cited from earlier work
smiles,measurement,setting,value
C=C [ethylene],increase of endogenous GA1 levels,[1]; at the same time (within three hours),four-fold
same,reduction of endogenous ABA levels in internodes,[1]; within three hours of application of ethylene,75%
C[C@@H]1C[C@@H]([C@H](O)CC2CC(=O)NC(=O)C2)C(=O)[C@@H](C)C1 [cycloheximide],induction of SH2A gene expression in the presence of the protein synthesis inhibitor,"[2]; 150 μM ethephon with cycloheximide, intercalary meristem",occurred
same,cycloheximide concentration required for SH2A gene induction,"[2]; dose response, 3 h, intercalary meristem",≥ 20 µg/mL
same,SH2A transcripts after treatment with CHX alone,"[2]; stem segments, 3 h, intercalary meristem",accumulation of SH2A transcripts
"C=C1C[C@]23C[C@@]1(O)CC[C@H]2[C@@]12C=C[C@H](O)[C@@](C)(C(=O)O1)[C@H]2[C@@H]3C(=O)O [GA3, gibberellin A3]",SH2A transcript levels,"[2]; incubation with 50 μM GA3, after 2.5 h, compared with controls",did not result in increased SH2A transcript levels
"O=P(O)(O)CCCl [ethephon, 2-chloroethanephosphoric acid]",SH2A mRNA levels between 2 and 6 hours,"[2]; 150 μM ethephon, meristem and elongation zone",declined to control levels
same,time of maximal SH2A mRNA abundance,"[2]; 150 μM ethephon, meristem and elongation zone, RNA at 1 hour intervals",2 h
same,lowest ethephon concentration inducing SH2A transcript accumulation,"[2]; 2.5 hours, 0.015-150 μM tested, intercalary meristem",1.5 µM
same,SH2A transcript levels,"[2]; stem segments treated with 150 μM ethephon, 2.5 h, intercalary meristem and elongation zone",strong increase
CC(C)(C)[C@@H](O)[C@@H](Cc1ccc(Cl)cc1)n1cncn1 (racemic) [paclobutrazol],survival of seedlings,[3],greatly enhanced
"C1=CC2C=CC1C2 [norbornadiene, bicyclo[2.2.1]hepta-2,5-diene]",SH2A transcript levels,[2]; ethephon in combination with norbornadiene at 50 μl/l in the gas phase,reduced to control levels
